Inhibition and IC50 data for 30 compounds are collected here from patent publication US7507730B2, “Substituted pyrazolo[1,5-a]pyrimidines as potassium channel activators” (Bristol-Myers Squibb Company, priority 2005, dated 2009).

One may read the inhibition as how much of the control response was suppressed. Lower therefore signals a response near the control.

Chain of Kv1.5 (P22460 whole entry): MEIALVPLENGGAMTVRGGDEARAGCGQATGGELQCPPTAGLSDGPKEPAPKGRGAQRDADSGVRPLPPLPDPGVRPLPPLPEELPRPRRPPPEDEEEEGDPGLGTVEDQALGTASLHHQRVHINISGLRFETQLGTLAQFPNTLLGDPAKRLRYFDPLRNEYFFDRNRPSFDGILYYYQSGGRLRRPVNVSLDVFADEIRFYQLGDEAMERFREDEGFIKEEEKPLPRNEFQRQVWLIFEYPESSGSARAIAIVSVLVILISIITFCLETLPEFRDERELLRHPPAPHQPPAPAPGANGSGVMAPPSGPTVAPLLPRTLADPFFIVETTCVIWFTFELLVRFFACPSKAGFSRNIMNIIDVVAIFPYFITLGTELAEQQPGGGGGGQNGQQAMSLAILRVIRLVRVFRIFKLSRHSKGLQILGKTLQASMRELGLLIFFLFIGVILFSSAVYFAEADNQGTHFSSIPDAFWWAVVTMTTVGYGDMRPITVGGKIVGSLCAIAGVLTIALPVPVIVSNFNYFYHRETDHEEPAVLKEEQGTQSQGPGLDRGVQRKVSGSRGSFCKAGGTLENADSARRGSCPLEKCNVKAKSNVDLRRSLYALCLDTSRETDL

For the first experiment, the target named is Kv1.5 (Homo sapiens, UniProt P22460). The experiment in a line: Kv1.5 inhibition assay (IKur inhibitor assay per cited references). In kind it is cell-based. To be noted: at 0.3 μM. From the text:
Assays to determine the degree of activity of a compound as an IKur inhibitor are well known in the art and are described in references such as J. Gen. Physiol. Apr.; 101 (4):513-43, and Br. J. Pharmacol. 1995 May; 115(2):267-74.
`CC1=C(S(=O)(=O)c2ccccc2)C(c2ccc3c(c2)OCO3)n2nc(C)cc2N1` (racemic) [Example 6, 7-(Benzo[d][1,3]dioxol-5-yl)-2,5-dimethyl-6-(phenylsulfonyl)-4,7-dihydropyrazolo[1,5-a]pyrimidine] returned an inhibition at 0.3 µM of 6.1%.

In turn, `CC1=C(S(=O)(=O)C(C)C)C(c2ccc(Cl)c(Cl)c2)n2nc(C)cc2N1` (racemic) [Example 13, 7-(3,4-Dichlorophenyl)-6-(isopropylsulfonyl)-2,5-dimethyl-4,7-dihydropyrazolo[1,5-a]pyrimidine] returned an inhibition at 0.3 µM of 15.4%.

The compound `CC1=C(S(=O)(=O)Cc2ccccc2)C(c2ccc(Cl)c(Cl)c2)n2nc(C)cc2N1` (racemic) [Example 14, 6-(Benzylsulfonyl)-7-(3,4-dichlorophenyl)-2,5-dimethyl-4,7-dihydropyrazolo[1,5-a]pyrimidine] had an inhibition at 0.3 µM of 50.4%.

`Cc1cc2nc(C)c(S(=O)(=O)Cc3ccccc3)c(-c3ccc(Cl)c(Cl)c3)n2n1` (racemic) [Example 15, 6-(Benzylsulfonyl)-7-(3,4-dichlorophenyl)-2,5-dimethylpyrazolo[1,5-a]pyrimidine] registered an inhibition at 0.3 µM of 8.5%.

For the compound `CC1=C(S(=O)(=O)Cc2ccccc2)C(c2ccc(Cl)c(Cl)c2)n2nc(C(F)(F)F)cc2N1` (racemic) [Example 16, 6-(Benzylsulfonyl)-7-(3,4-dichlorophenyl)-5-methyl-2-(trifluoromethyl)-4,7-dihydropyrazolo[1,5-a]pyrimidine], at 0.3 µM the inhibition was 37.2%.

In turn, `CC1=C(S(=O)(=O)c2ccccc2)C(c2ccc(Cl)s2)n2nc(C(F)(F)F)cc2N1` (racemic) [Example 20, 7-(5-Chlorothiophen-2-yl)-5-methyl-6-(phenylsulfonyl)-2-(trifluoromethyl)-4,7-dihydropyrazolo[1,5-a]pyrimidine] had an inhibition at 0.3 µM of 7.8%.

In turn, `CC1=C(S(=O)(=O)c2ccccc2)C(c2ccc(N3CCCC3)cc2)n2nc(C(F)(F)F)cc2N1` (racemic) [Example 21, 5-Methyl-6-(phenylsulfonyl)-7-(4-(pyrrolidin-1-yl)phenyl)-2-(trifluoromethyl)-4,7-dihydropyrazolo[1,5-a]pyrimidine] returned an inhibition at 0.3 µM of 11.1%.

The compound `CC1=C(S(=O)(=O)c2ccccc2)C(c2ccc(F)c(C)c2)n2nc(C(F)(F)F)cc2N1` (racemic) [Example 22, 7-(4-Fluoro-3-methylphenyl)-5-methyl-6-(phenylsulfonyl)-2-(trifluoromethyl)-4,7-dihydropyrazolo[1,5-a]pyrimidine] registered an inhibition at 0.3 µM of 30.7%.

With `CC1=C(S(=O)(=O)c2ccc(Cl)cc2)C(c2ccc(C)cc2)n2nc(C(F)(F)F)cc2N1` (racemic) [Example 34, 6-(4-Chlorophenylsulfonyl)-5-methyl-7-p-tolyl-2-(trifluoromethyl)-4,7-dihydropyrazolo[1,5-a]pyrimidine], the inhibition at 0.3 µM was 37.6%.

`COc1ccc(NS(=O)(=O)C2=C(C)Nc3cc(C)nn3C2c2ccc(Cl)c(Cl)c2)cc1` (racemic) [Example 37, 7-(3,4-Dichlorophenyl)-N-(4-methoxyphenyl)-2,5-dimethyl-4,7-dihydropyrazolo[1,5-a]pyrimidine-6-sulfonamide]: the inhibition at 0.3 µM is 25%.

On to `COc1ccc(S(=O)(=O)C2=C(CO)Nc3cc(C(F)(F)F)nn3C2c2ccc(Cl)c(Cl)c2)cc1` (racemic) [Example 48, (7-(3,4-Dichlorophenyl)-6-(4-methoxyphenylsulfonyl)-2-(trifluoromethyl)-4,7-dihydropyrazolo[1,5-a]pyrimidin-5-yl)methanol], for which the inhibition at 0.3 µM stood at 15%.

`CC1=C(S(=O)(=O)NC2CCCCC2)C(c2ccc(Cl)cc2)n2nc(C(F)(F)F)cc2N1` (racemic) [Example 52, 7-(4-Chlorophenyl)-N-cyclohexyl-5-methyl-2-(trifluoromethyl)-4,7-dihydropyrazolo[1,5-a]pyrimidine-6-sulfonamide] came in with an inhibition at 0.3 µM of 49.6%.

Take `CC1=C(S(=O)(=O)NCc2ccccc2)C(c2ccc(Cl)cc2)n2nc(C(F)(F)F)cc2N1` (racemic) [Example 54, N-Benzyl-7-(4-chlorophenyl)-5-methyl-2-(trifluoromethyl)-4,7-dihydropyrazolo[1,5-a]pyrimidine-6-sulfonamide]: the inhibition at 0.3 µM came to 27.7%.

With `CC1=C(S(=O)(=O)NC(C)(C)C)C(c2ccc(Cl)cc2)n2nc(C(F)(F)F)cc2N1` (racemic) [Example 57, N-tert-Butyl-7-(4-chlorophenyl)-5-methyl-2-(trifluoromethyl)-4,7-dihydropyrazolo[1,5-a]pyrimidine-6-sulfonamide], the inhibition at 0.3 µM stood at 34.1%.

`CC1=C(S(=O)(=O)N(C)c2ccccc2)C(c2ccc(Cl)c(Cl)c2)n2nc(C)cc2N1` (racemic) [Example 60, 7-(3,4-Dichlorophenyl)-N,2,5-trimethyl-N-phenyl-4,7-dihydropyrazolo[1,5-a]pyrimidine-6-sulfonamide]: the inhibition at 0.3 µM was 83.2%.

`Cc1nc2cc(C(F)(F)F)nn2c(-c2ccc(Cl)c(Cl)c2)c1S(=O)(=O)N(C)c1ccccc1` (racemic) [Example 62, 7-(3,4-Dichlorophenyl)-N,5-dimethyl-N-phenyl-2-(trifluoromethyl)pyrazolo[1,5-a]pyrimidine-6-sulfonamide] displayed an inhibition at 0.3 µM of 12%.

`CC1=C(S(=O)(=O)N2CCCC2)C(c2ccc(Cl)c(Cl)c2)n2nc(C)nc2N1` (racemic) [Example 68, 7-(3,4-Dichlorophenyl)-2,5-dimethyl-6-(pyrrolidin-1-ylsulfonyl)-4,7-dihydro-[1,2,4]triazolo[1,5-a]pyrimidine] showed an inhibition at 0.3 µM of 7%.

Take `CC1=C(S(=O)(=O)N2CCN(c3ccccc3)CC2)C(c2ccc(Cl)c(Cl)c2)n2nc(C(F)(F)F)cc2N1` (racemic) [Example 70, 7-(3,4-Dichlorophenyl)-5-methyl-6-(4-phenylpiperazin-1-ylsulfonyl)-2-(trifluoromethyl)-4,7-dihydropyrazolo[1,5-a]pyrimidine]: the inhibition at 0.3 µM was 26%.

As to `CC1=C(S(=O)(=O)N2CCCC2)C(c2cc3ccccc3n2C)n2nc(C(F)(F)F)cc2N1` (racemic) [Example 71, 5-Methyl-7-(1-methyl-1H-indol-2-yl)-6-(pyrrolidin-1-ylsulfonyl)-2-(trifluoromethyl)-4,7-dihydropyrazolo[1,5-a]pyrimidine], the inhibition at 0.3 µM is 41%.

For `CC1=C(S(=O)(=O)c2ccc(Cl)cc2)C(c2cc3ccccc3n2C)n2nc(C(F)(F)F)cc2N1` (racemic) [Example 72, 6-(4-Chlorophenylsulfonyl)-5-methyl-7-(1-methyl-1H-indol-2-yl)-2-(trifluoromethyl)-4,7-dihydropyrazolo[1,5-a]pyrimidine], the inhibition at 0.3 µM came to 34%.

As to `COc1ccc(S(=O)(=O)N(C)C(=O)C2=C(C)Nc3ccnn3C2c2ccc(Cl)c(Cl)c2)cc1` (racemic) [Example 73, 7-(3,4-Dichlorophenyl)-N-(4-methoxyphenylsulfonyl)-N,5-dimethyl-4,7-dihydropyrazolo[1,5-a]pyrimidine-6-carboxamide], testing at 0.3 µM gave an inhibition of 86%.

`CC1=C(C(=O)N(C)S(=O)(=O)c2ccccc2)C(c2ccc(Cl)c(Cl)c2)n2nccc2N1` (racemic) [Example 74, 7-(3,4-Dichlorophenyl)-N,5-dimethyl-N-(phenylsulfonyl)-4,7-dihydropyrazolo[1,5-a]pyrimidine-6-carboxamide] displayed an inhibition at 0.3 µM of 79%.

Compound `CC1=C(C(=O)N(C)S(=O)(=O)c2ccc(Cl)cc2)C(c2ccc(Cl)c(Cl)c2)n2nccc2N1` (racemic) [Example 75, N-(4-Chlorophenylsulfonyl)-7-(3,4-dichlorophenyl)-N,5-dimethyl-4,7-dihydropyrazolo[1,5-a]pyrimidine-6-carboxamide] yielded an inhibition at 0.3 µM of 89%.

`CC1=C(C(=O)N(C)S(=O)(=O)c2ccc3ccc(Cl)cc3c2)C(c2ccc(Cl)c(Cl)c2)n2nccc2N1` (racemic) [Example 76, N-(7-Chloronaphthalen-2-ylsulfonyl)-7-(3,4-dichlorophenyl)-N,5-dimethyl-4,7-dihydropyrazolo[1,5-a]pyrimidine-6-carboxamide] gave an inhibition at 0.3 µM of 38%.

For the compound `CC1=C(C(=O)N(C)S(=O)(=O)c2ccc(F)cc2)C(c2ccc(Cl)c(Cl)c2)n2nc(C(F)(F)F)cc2N1` (racemic) [Example 82, 7-(3,4-Dichlorophenyl)-N-(4-fluorophenylsulfonyl)-N,5-dimethyl-2-(trifluoromethyl)-4,7-dihydropyrazolo[1,5-a]pyrimidine-6-carboxamide], the inhibition at 0.3 µM turned out to be 7%.

In turn, `CC1=C(C(=O)N2CCN(C)S2(=O)=O)C(c2ccc(Cl)c(Cl)c2)n2nc(C)cc2N1` (racemic) [Example 83] registered an inhibition at 0.3 µM of 40%.

For the compound `CCCCS(=O)(=O)NC(=O)C1=C(C)Nc2cc(C(F)(F)F)nn2C1c1ccc(Cl)c(Cl)c1` (racemic) [Example 85, N-(Butylsulfonyl)-7-(3,4-dichlorophenyl)-5-methyl-2-(trifluoromethyl)-4,7-dihydropyrazolo[1,5-a]pyrimidine-6-carboxamide], the inhibition at 0.3 µM is 11%.

Still in this experiment, the particulars now being: given as % inhibition, value given as a concentration in μM; read-out: Kv1.5% inhibition.
Turning to `COc1ccc(S(=O)(=O)N(C)C(=O)C2=C(C)Nc3cc(C)nn3C2c2ccc(Cl)c(Cl)c2)cc1` (racemic) [Example 77, 7-(3,4-Dichlorophenyl)-N-(4-methoxyphenylsulfonyl)-N,2,5-trimethyl-4,7-dihydropyrazolo[1,5-a]pyrimidine-6-carboxamide], the IC50 came out at 0.172 µM.

As for `CC1=C(C(=O)N(C)S(=O)(=O)c2ccccc2)C(c2ccc(Cl)c(Cl)c2)n2nc(C)cc2N1` (racemic) [Example 78, 7-(3,4-Dichlorophenyl)-N,2,5-trimethyl-N-(phenylsulfonyl)-4,7-dihydropyrazolo[1,5-a]pyrimidine-6-carboxamide], the IC50 was 0.164 µM.

The same experiment, now with this note: read-out: Kv1.5 IC50.
With `CCCCS(=O)(=O)N(C)C(=O)C1=C(C)Nc2cc(C(F)(F)F)nn2C1c1ccc(Cl)c(Cl)c1` (racemic) [Example 86, N-(Butylsulfonyl)-7-(3,4-dichlorophenyl)-N,5-dimethyl-2-(trifluoromethyl)-4,7-dihydropyrazolo[1,5-a]pyrimidine-6-carboxamide], the IC50 came to 0.242 µM.
